This is an account of results in patent publication US6538037B2, “Methods for preparation and use of 1α,24(S)-dihydroxyvitamin D2” (Bone Care International, Inc., priority 1991, dated 2003).

Series [1] can be described thus: Dose ranging study in postmenopausal osteoporotic women. The format is in vivo, human. The note with it: oral 0.5 to 8.0 μg/day, five weeks. As to the method: Twenty postmenopausal osteoporotic women are enrolled in an open label study.
In admission to the study, all patients receive instruction on selecting a daily diet containing 400 to 600 mg of calcium. Compliance to this diet is verified at weekly intervals by 24-hour food records and by interviews with each patient.
All patients complete a one-week baseline period, a five-week treatment period, and a one-week post-treatment observation period. During the treatment period, patients orally self-administer 1α,24(S)-dihydroxyvitamin D2 at an initial dose of 0.5 μg/day for the first week, and at successively higher doses of 1.0, 2.0, 4.0, and 8.0 μg/day in each of the following four weeks. All doses are administered before breakfast.
Blood and urine chemistries are monitored on a weekly basis throughout the study. Key blood chemistries include fasting serum levels of calcium, phosphorus, osteocalcin, creatinine, and blood urea nitrogen. Key urine chemistries include 24-hour excretion of calcium, phosphorus, and creatinine.

Series [2] is described as follows: Prophylaxis of postmenopausal bone loss. The format is in vivo, human. Conditions: at or above 1.0 μg/day, 24 to 36 months. As for the experimental part:
A clinical study is conducted with healthy postmenopausal women having ages between 55 and 60 years. The study involves up to 80 patients randomly divided into two treatment groups, and continues for 24 to 36 months. One treatment group receives a constant dosage of 1α,24(S)-dihydroxyvitamin D2 (u.i.d.; a dose level at or above 1.0 μg/day) and the other receives a matching placebo. The study is conducted as indicated in Example 2 above.

For the molecule `C=C1/C(=C\C=C2/CCC[C@]3(C)[C@@H]([C@H](C)/C=C/[C@@](C)(O)C(C)C)CC[C@@H]23)C[C@@H](O)C[C@@H]1O` [1α,24(S)-(OH)2D2, 1α,24(S)-dihydroxyvitamin D2], in series [1], the “24-hour urinary calcium levels” value is “modest increases in 24-hour urinary calcium levels”; the “kidney function (creatinine clearance, blood urea nitrogen)” value is reported as “does not adversely affect kidney function”; the “routinely monitored serum parameters” value is reported as “no effect on any routinely monitored serum parameters”; the serum osteocalcin levels entry is “increases in serum osteocalcin levels”. Further, in series [1], the “urinary excretion of hydroxyproline” value is given as “nor does it increase urinary excretion of hydroxyproline”. Also, in series [2], the “losses in total body calcium, radial or spinal bone densities relative to baseline” value is on record as “reduced losses in total body calcium, radial or spinal bone densities” and the monitored safety parameters result is listed as “confirm the safety of long-term 1α,24(S)-dihydroxyvitamin D2 administration”.
